In US20260001871A1, “TRIAZOLE DERIVATIVES AS MODULATORS OF MAS-RELATED G-PROTEIN RECEPTOR D” (ESCIENT PHARMACEUTICALS, INC., priority 2022, published 2026):

Molecular target: human MRGPRD (Homo sapiens, UniProt Q8TDS7)
Assay: MRGPRD antagonist activity, IP-One HTRF assay in CHO cells stably expressing human MRGPRD (versus 100 μM β-Alanine agonist)
Assay type: cell-based
Summary of the method: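 IP-1 HTRF read-out, with IC50 from HTRF ratio curves and percent antagonism relative to maximal efficacy (mean, SEM). Antagonists and agonist were co-incubated 1 h at 37 °C plus 1 h at room temperature on overnight-plated MRGPRD-CHO cells in LiCl-containing Tris buffer, pH 8.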

Sequence of human MRGPRD (Q8TDS7 whole entry): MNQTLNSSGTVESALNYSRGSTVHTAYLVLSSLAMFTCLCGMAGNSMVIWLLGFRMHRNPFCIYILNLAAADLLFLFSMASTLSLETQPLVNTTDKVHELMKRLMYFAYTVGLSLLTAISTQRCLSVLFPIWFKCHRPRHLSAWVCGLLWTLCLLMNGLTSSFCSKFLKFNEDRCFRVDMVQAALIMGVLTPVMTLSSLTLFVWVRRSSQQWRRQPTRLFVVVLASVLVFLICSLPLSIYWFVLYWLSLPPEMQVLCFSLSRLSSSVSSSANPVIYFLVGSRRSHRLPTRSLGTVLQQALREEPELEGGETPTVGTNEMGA

SMILES | IC50
O=C(Nc1ccncc1)c1nnn(-c2ccc(-c3cccs3)cc2)c1C1CC1 [Compound 7-152] | 500 to 1000 nM
COc1cccc(-c2ccc(-n3nnc(C(=O)Nc4ccncc4)c3C3CC3)cc2)c1 [Compound 7-153] | 500 to 1000 nM
N#CCc1ccccc1-c1ccc(-n2nnc(C(=O)Nc3ccncc3)c2C2CC2)cc1 [Compound 7-154] | 500 to 1000 nM
O=C(Nc1ccncc1)c1nnn(-c2ccc(-c3cccc(C(F)(F)F)c3)cc2)c1C1CC1 [Compound 7-155] | 500 to 1000 nM
O=C(Nc1ccncc1)c1nnn(-c2ccc(-c3ccnn3-c3ccccc3)cc2)c1C1CC1 [Compound 7-156] | 500 to 1000 nM
CC(C)n1nc(C(F)(F)F)cc1-c1ccc(-n2nnc(C(=O)Nc3ccncc3)c2C2CC2)cc1 [Compound 7-157] | 500 to 1000 nM
COCn1cc(-c2ccc(-n3nnc(C(=O)Nc4ccncc4)c3C3CC3)cc2)cn1 [Compound 7-158] | 500 to 1000 nM
CC(C)Oc1ccccc1-c1ccc(-n2nnc(C(=O)Nc3ccncc3)c2C2CC2)cc1 [Compound 7-160] | 500 to 1000 nM
O=C(Nc1ccncc1)c1nnn(-c2ccc(-c3ccccc3O)cc2)c1C1CC1 [Compound 7-161] | 500 to 1000 nM
O=C(Nc1ccncc1)c1nnn(-c2ccc(-c3cccc(OC(F)(F)F)c3)cc2)c1C1CC1 [Compound 7-162] | 1000 to 3000 nM
Cn1ccnc1-c1ccc(-n2nnc(C(=O)Nc3ccncc3)c2C2CC2)cc1 [Compound 7-163] | 1000 to 3000 nM
Cn1nc(-c2ccc(-n3nnc(C(=O)Nc4ccncc4)c3C3CC3)cc2)c2ccccc21 [Compound 7-164] | 1000 to 3000 nM
O=C(Nc1ccncc1)c1nnn(-c2ccc(-c3n[nH]c4cnccc34)cc2)c1C1CC1 [Compound 7-165] | 1000 to 3000 nM
O=C(Nc1ccncc1)c1nnn(-c2ccc(-c3cccc(C4CCCCC4)c3)cc2)c1C1CC1 [Compound 7-166] | 1000 to 3000 nM
COCc1cccc(-c2ccc(-n3nnc(C(=O)Nc4ccncc4)c3C3CC3)cc2)c1 [Compound 7-167] | 1000 to 3000 nM
O=C(Nc1ccncc1)c1nnn(-c2ccc(-c3ccnn3CC3CC3)cc2)c1C1CC1 [Compound 7-168] | 1000 to 3000 nM
O=C(Nc1ccncc1)c1nnn(-c2ccc(-c3ccccc3C(F)(F)F)cc2)c1C1CC1 [Compound 7-169] | 1000 to 3000 nM
O=C(Nc1ccncc1)c1nnn(-c2ccc(-c3cccc(O)c3)cc2)c1C1CC1 [Compound 7-170] | 1000 to 3000 nM
O=C(Nc1ccncc1)c1nnn(-c2ccc(-c3cccc(CO)c3)cc2)c1C1CC1 [Compound 7-171] | 1000 to 3000 nM
CN(C)c1ccccc1-c1ccc(-n2nnc(C(=O)Nc3ccncc3)c2C2CC2)cc1 [Compound 7-172] | 1000 to 3000 nM
O=C(Nc1ccncc1)c1nnn(-c2ccc(-c3cn[nH]c3)cc2)c1C1CC1 [Compound 7-173] | 1000 to 3000 nM
CC(=O)c1ccc(-c2ccc(-n3nnc(C(=O)Nc4ccncc4)c3C3CC3)cc2)cc1C [Compound 7-174] | 1000 to 3000 nM
CC(C)n1cc(-c2ccc(-n3nnc(C(=O)Nc4ccncc4)c3C3CC3)cc2)cn1 [Compound 7-175] | 1000 to 3000 nM
O=C(Nc1ccncc1)c1nnn(-c2ccc(-c3cscn3)cc2)c1C1CC1 [Compound 7-176] | 1000 to 3000 nM
O=C(Nc1ccncc1)c1nnn(-c2ccc(-c3nccs3)cc2)c1C1CC1 [Compound 7-177] | 1000 to 3000 nM
O=C(Nc1ccncc1)c1nnn(-c2ccc(-c3ccncc3)cc2)c1C1CC1 [Compound 7-178] | 1000 to 3000 nM

SMILES | IC50
O=C(Nc1ccncc1)c1nnn(-c2ccc(-c3cccnc3)cc2)c1C1CC1 [Compound 7-179] | 1000 to 3000 nM
N#Cc1ccccc1-c1ccc(-n2nnc(C(=O)Nc3ccncc3)c2C2CC2)cc1 [Compound 7-180] | 1000 to 3000 nM
Cc1cscc1-c1ccc(-n2nnc(C(=O)Nc3ccncc3)c2C2CC2)cc1 [Compound 7-181] | 1000 to 3000 nM
Cc1ccc(-c2ccc(-n3nnc(C(=O)Nc4ccncc4)c3C3CC3)cc2)s1 [Compound 7-182] | 1000 to 3000 nM
O=C(Nc1ccncc1)c1nnn(-c2ccc(-c3cc(C(F)(F)F)[nH]n3)cc2)c1C1CC1 [Compound 7-183] | 1000 to 3000 nM
Cn1cc(C#N)c(-c2ccc(-n3nnc(C(=O)Nc4ccncc4)c3C3CC3)cc2)n1 [Compound 7-184] | 1000 to 3000 nM
COc1ccc(-c2ccc(-n3nnc(C(=O)Nc4ccncc4)c3C3CC3)cc2)cc1F [Compound 7-185] | 1000 to 3000 nM
O=C(Nc1ccncc1)c1nnn(-c2ccc(-c3ccccc3OC(F)(F)F)cc2)c1C1CC1 [Compound 7-186] | 1000 to 3000 nM
O=C(Nc1ccncc1)c1nnn(-c2ccc(-c3cncs3)cc2)c1C1CC1 [Compound 7-187] | 1000 to 3000 nM
Cn1ncc(C#N)c1-c1ccc(-n2nnc(C(=O)Nc3ccncc3)c2C2CC2)cc1 [Compound 7-188] | 1000 to 3000 nM
CCn1cc(-c2ccc(-n3nnc(C(=O)Nc4ccncc4)c3C3CC3)cc2)c(C)n1 [Compound 7-189] | 1000 to 3000 nM
O=C(Nc1ccncc1)c1nnn(-c2ccc(-c3cccc(F)c3)cc2)c1C1CC1 [Compound 7-190] | 1000 to 3000 nM
Cc1cc(-c2ccc(-n3nnc(C(=O)Nc4ccncc4)c3C3CC3)cc2)sn1 [Compound 7-191] | 1000 to 3000 nM
Cn1ncc(CO)c1-c1ccc(-n2nnc(C(=O)Nc3ccncc3)c2C2CC2)cc1 [Compound 7-192] | 1000 to 3000 nM
Cc1cnn(C2CCCCO2)c1-c1ccc(-n2nnc(C(=O)Nc3ccncc3)c2C2CC2)cc1 (stereo not shown) [Compound 7-193] | 1000 to 3000 nM
COc1ncc(-c2ccc(-n3nnc(C(=O)Nc4ccncc4)c3C3CC3)cc2)cn1 [Compound 7-194] | 1000 to 3000 nM
O=C(Nc1ccncc1)c1nnn(-c2ccc(-c3ccc(OC(F)(F)F)cc3)cc2)c1C1CC1 [Compound 7-195] | 1000 to 3000 nM
O=C(Nc1ccncc1)c1nnn(-c2ccc(-c3ccc4[nH]ccc4c3)cc2)c1C1CC1 [Compound 7-196] | 1000 to 3000 nM
NS(=O)(=O)c1ccccc1-c1ccc(-n2nnc(C(=O)Nc3ccncc3)c2C2CC2)cc1 [Compound 7-197] | 1000 to 3000 nM
Cc1cc(-c2ccc(-n3nnc(C(=O)Nc4ccncc4)c3C3CC3)cc2)on1 [Compound 7-198] | 1000 to 3000 nM
CCc1ccc(-c2ccc(-n3nnc(C(=O)Nc4ccncc4)c3C3CC3)cc2)cc1 [Compound 7-199] | 1000 to 3000 nM
O=C(Nc1ccncc1)c1nnn(-c2ccc(-c3ccccn3)cc2)c1C1CC1 [Compound 7-200] | 1000 to 3000 nM
CC(C)(C)c1cccc(-c2ccc(-n3nnc(C(=O)Nc4ccncc4)c3C3CC3)cc2)c1 [Compound 7-201] | 1000 to 3000 nM
O=C(Nc1ccncc1)c1nnn(-c2ccc(-c3ccc(C4CCCC4)cc3)cc2)c1C1CC1 [Compound 7-202] | 1000 to 3000 nM
O=C(Nc1ccncc1)c1nnn(-c2ccc(-c3cncnc3)cc2)c1C1CC1 [Compound 7-203] | 1000 to 3000 nM
CN(C)C(=O)c1cccc(-c2ccc(-n3nnc(C(=O)Nc4ccncc4)c3C3CC3)cc2)c1 [Compound 7-204] | 1000 to 3000 nM

SMILES | IC50
Cc1cc(NC(=O)c2nnn(-c3ccc(-c4ccccc4)c(F)c3)c2C2CC2)ccn1 [Compound 7-205] | 1000 to 3000 nM
Cc1cc(-c2ccc(-n3nnc(C(=O)Nc4ccncc4)c3C3CC3)cc2)n[nH]1 [Compound 7-206] | 1000 to 3000 nM
CN(C)C(=O)c1ccc(-c2ccc(-n3nnc(C(=O)Nc4ccncc4)c3C3CC3)cc2)cc1 [Compound 7-207] | 1000 to 3000 nM
CCc1ccccc1-c1ccc(-n2nnc(C(=O)Nc3ccncc3)c2C2CC2)cc1 [Compound 7-208] | 1000 to 3000 nM
Cc1nn(C)c(C)c1-c1ccc(-n2nnc(C(=O)NCc3nc4ccccc4n3C)c2C2CC2)cc1 [Compound 7-209] | 1000 to 3000 nM
CN(C)Cc1ccc(-c2ccc(-n3nnc(C(=O)Nc4ccncc4)c3C3CC3)cc2)cc1 [Compound 7-210] | 1000 to 3000 nM
O=C(Nc1ccncc1)c1nnn(-c2ccc(-c3cc(CO)[nH]n3)cc2)c1C1CC1 [Compound 7-211] | 1000 to 3000 nM
CC(C)Cn1nc(C(F)(F)F)cc1-c1ccc(-n2nnc(C(=O)Nc3ccncc3)c2C2CC2)cc1 [Compound 7-212] | 1000 to 3000 nM
O=C(O)c1cccc(-c2ccc(-n3nnc(C(=O)Nc4ccncc4)c3C3CC3)cc2)c1 [Compound 7-213] | > 3000 nM
CC(C)c1ccc(-c2ccc(-n3nnc(C(=O)Nc4ccncc4)c3C3CC3)cc2)cc1 [Compound 7-214] | > 3000 nM
Cn1nc(-c2ccc(-n3nnc(C(=O)Nc4ccncc4)c3C3CC3)cc2)cc1N [Compound 7-215] | > 3000 nM
N#Cc1cnn(-c2ccccc2)c1-c1ccc(-n2nnc(C(=O)Nc3ccncc3)c2C2CC2)cc1 [Compound 7-216] | > 3000 nM
Cn1cc(-c2ccc(-n3nnc(C(=O)Nc4ccncc4)c3C3CC3)cc2)c(C(F)(F)F)n1 [Compound 7-217] | > 3000 nM
Cn1cc(-c2ccc(-n3nnc(C(=O)Nc4ccncc4)c3C3CC3)cc2)c(C2CC2)n1 [Compound 7-218] | > 3000 nM
CCn1nc(C)c(-c2ccc(-n3nnc(C(=O)Nc4ccnc(C)c4)c3C3CC3)c(F)c2)c1C [Compound 7-219] | < 100 nM
Cc1cc(NC(=O)c2nnn(-c3ccc(-c4c(C)nn(C)c4C)cc3F)c2C2CC2)ccn1 [Compound 7-220] | < 100 nM
Cc1nn(C)c(C)c1-c1ccc(-n2nnc(C(=O)Nc3ccncc3)c2C2CC2)c(F)c1 [Compound 7-221] | < 100 nM
Cc1cc(NC(=O)c2nnn(-c3ccc(-c4c(C)nn(CC(F)(F)F)c4C)cc3F)c2C2CC2)ccn1 [Compound 7-222] | < 100 nM
Cc1cc(NC(=O)c2nnn(-c3ccc(-c4c(C)nn(-c5ccccc5)c4C)cc3F)c2C2CC2)ccn1 [Compound 7-223] | < 100 nM
Cc1cc(NC(=O)c2nnn(-c3ccc(-c4c(C)nn(C)c4F)cc3F)c2C2CC2)ccn1 [Compound 7-224] | < 100 nM
Cc1ccc(C2(NC(=O)c3nnn(-c4ccc(-c5c(C)nn(-c6ccccc6)c5C)cc4F)c3C3CC3)CC2)cn1 [Compound 7-225] | < 100 nM
COc1cc(-c2c(C)nn(C)c2C)ccc1-n1nnc(C(=O)Nc2ccncc2)c1C1CC1 [Compound 7-226] | 100 to 500 nM
Cc1ccc(C2(NC(=O)c3nnn(-c4ccc(-c5ccc(C#N)cc5)cc4F)c3C3CC3)CC2)cn1 [Compound 7-227] | 100 to 500 nM
COc1cc(-c2ccc(C#N)cc2)ccc1-n1nnc(C(=O)Nc2ccnc(C)c2)c1C1CC1 [Compound 7-228] | 100 to 500 nM
